# Data as given in PubChem BioAssay (NCI).
#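 Interpolation was linear, between the two tested concentrations surrounding the appropriate level; five concentrations were tested over 48 hours in 96-well plates. The concentration for 50% growth inhibition is given as GI50. Definition used: TGI = concentration required for complete inhibition of growth.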
# Assays:
# Assay in all cases: DTP human tumour cell line panel, 48 h
# [1] = system: UACC-62 melanoma
# [2] = system: HOP-62 NSCLC
# [3] = system: BT-549 breast
# [4] = system: HT29 colon
# [5] = system: HCT-15 colon
# [6] = system: UACC-257 melanoma
# [7] = system: U251 CNS
# [8] = system: CAKI-1 renal
# [9] = system: CCRF-CEM leukemia
# [10] = system: HOP-92 NSCLC
# [11] = system: IGROV1 ovarian
# [12] = system: NCI-H522 lung
# [13] = system: SK-OV-3 ovarian
# [14] = system: SF-268 CNS
# [15] = system: K-562 leukemia
# [16] = system: DU-145 prostate
# [17] = system: OVCAR-4 ovarian
SMILES,TGI [1] [µM],TGI [2] [µM],TGI [3] [µM],TGI [4] [µM],TGI [5] [µM],TGI [6] [µM],TGI [7] [µM],TGI [8] [µM],TGI [9] [µM],TGI [10] [µM],TGI [11] [µM],TGI [12] [µM],TGI [13] [µM],TGI [14] [µM],TGI [15] [µM],TGI [16] [µM],TGI [17] [µM],GI50 [14] [µM]
CN(CCCN1CCCC1)CCCN(C)C(=O)Cc1ccc(Cl)c(Cl)c1,5.04,51,46.2,17.5,> 87,7.45,29.7,49.1,23.8,35.9,67.8,32.4,> 89.6,> 51.5,18.3,> 100,> 96.1,
COC(=O)C1=C(C(=O)OC)N(c2ccncc2)C(c2ccco2)=CC1c1ccccc1[N+](=O)[O-] (stereo unspecified),27,> 46.2,25.4,3.95,5.58,4.25,10.7,31.6,7.43,32.4,4.19,5.06,33.1,20.8,> 100,18,15.7,
Nc1csc(-c2scc3c2OCCO3)c1N,45.1,42.6,50.2,52.6,35.1,54.2,29.3,> 100,,71.8,54.8,33.8,,47.5,87.4,53.8,> 100,
O=C1/C(=C\c2cccc(Oc3ccccc3)c2)SC(c2ccccc2)N1Cc1ccccc1 (stereo unspecified),> 100,> 100,89,51.2,> 100,87.9,64.4,> 100,45.5,60,,46.1,71.9,> 100,> 100,> 100,> 100,
Oc1c(O)c(Cc2ccccc2)c(Cc2ccccc2)c(Cc2ccccc2)c1Cc1ccccc1,> 10,> 10,> 10,> 10,> 10,> 10,> 10,> 10,> 10,> 10,> 10,> 10,> 10,> 10,> 10,> 10,> 10,
CN(C)c1ccc(C2=C([O-])c3cc(-[n+]4ccccc4)ccc3C2=O)cc1,,> 100,> 100,> 100,> 100,> 100,> 100,> 100,> 100,> 100,> 100,> 100,,> 100,> 100,> 100,> 100,
Cc1ccc([N+](=O)[O-])cc1S(=O)(=O)Nc1ccc(C2=NN(C(=O)c3ccccc3)C(c3ccccc3O)C2)cc1 (stereo unspecified),,85.7,30.7,62.5,33.5,51.8,80.1,91.9,> 100,26.4,25.4,28.6,84.5,45.9,> 100,41.5,42.8,
CCOC(=O)COc1cc(-c2ccccc2)nc2cc(F)ccc12,> 100,> 100,> 100,> 100,> 100,> 100,> 100,> 100,> 100,> 100,> 100,,> 100,> 100,> 100,> 100,> 100,
O=C(/C=C/c1ccc(O)c(O)c1)O[C@H]1CCCC[C@@H]1OC(=O)/C=C/c1ccc(O)c(O)c1,27.4,41.1,63.6,,35.7,77,> 100,> 100,61,52.1,55,20.8,41.3,38.8,> 100,41.8,> 100,
O=c1[nH]nc(Cc2ccc(Cl)cc2)n1CCO,> 100,,> 100,> 100,> 100,> 100,> 100,> 100,,> 100,> 100,> 100,> 100,> 100,> 100,> 100,> 100,
Clc1cccc(/C=c2\nc(-c3ccccc3)n3c2nc2ccccc23)c1,> 100,> 100,> 100,> 100,> 100,> 100,> 100,> 100,> 100,48.4,> 100,,> 100,> 100,> 100,> 100,> 100,
CC(=S)NC=C(C(N)=O)C(N)=O,> 100,> 100,> 100,> 100,> 100,> 100,> 100,> 100,> 100,> 100,> 100,> 100,> 100,> 100,> 100,> 100,,
CN(C(=O)C12C3(C(=O)O)C4C5(C(=O)O)C3C1(C(=O)O)C5C42C(=O)O)C(C)(C)C (stereo unspecified),> 100,> 100,> 100,> 100,> 100,> 100,> 100,> 100,> 100,> 100,> 100,> 100,,> 100,> 100,> 100,> 100,
CCOC(=O)/C=C(\C(=O)OCC)n1cc(C)c(=O)n(Cc2cn(COCCOC(C)=O)nn2)c1=O,33.8,38.7,24.3,20.9,55.4,33.7,37.5,7.05,5.95,3.91,31.1,,> 100,31.3,> 100,> 100,48.7,
COc1cc(/C=C/C(=O)N[C@@H]2C(=O)N3[C@@H]2SC(C)(C)[C@@H]3C(=O)O)ccc1O,> 100,> 100,> 100,> 100,> 100,> 100,> 100,> 100,> 100,> 100,,> 100,> 100,> 100,> 100,> 100,> 100,
CCCCCCCCCCCCCC/C(C(=O)O)=C(\C)C(=O)O,> 100,> 100,> 100,> 100,> 100,> 100,> 100,,> 100,> 100,> 100,> 100,> 100,> 100,> 100,> 100,> 100,
COc1ccc(-n2nnc3c(C#N)c(C)c(-c4ccccc4)n3c2=O)cc1,> 100,> 100,> 100,> 100,> 100,> 100,> 41.5,> 100,,> 100,> 100,,> 22.4,> 100,,8,> 100,
CCOC(=O)n1ccc2c(C(=O)OC)c(C(=O)OC)cc(/C(=C/C(=O)OC)C(=O)OC)c21,> 100,> 100,> 100,> 100,,> 100,> 100,> 100,> 100,> 100,> 100,> 100,> 100,> 100,> 100,> 100,> 100,
O=C(Cc1ccccc1)Nc1nc2ccc(Cl)cc2c2nc(-c3ccco3)nn12,> 100,> 62.4,> 100,> 100,> 100,> 100,> 100,> 100,> 100,57.1,> 100,> 100,> 100,> 100,> 100,> 100,,
Oc1cc(F)cc2cccnc12,> 42.6,> 100,70.2,> 36.7,> 100,4.29,> 100,> 100,0.656,3.1,3.99,3.16,> 100,,1.15,> 100,> 100,
COc1cc(S(=O)(=O)Nc2ccc(-c3csc(/N=C\c4cccc(Oc5ccccc5)c4)n3)cc2)ccc1Cl,25.1,> 100,93.1,> 100,> 100,,,> 100,> 100,58.6,64.2,66.6,,> 100,77,61.7,> 100,
CCOC1Oc2ccccc2-c2nc(N)ncc21 (stereo unspecified),> 100,,> 100,> 100,> 100,> 100,> 100,> 100,> 100,> 100,> 100,72.8,> 100,> 100,,> 100,> 100,
COc1cc([N+](=O)[O-])cc2c1NC(=O)C2(C)SC (stereo unspecified),> 100,> 100,> 100,> 100,> 100,> 100,> 100,> 100,> 100,,> 100,> 100,69.7,> 100,> 100,> 100,> 100,
CCOC(=O)CCCOc1cc(-c2ccccc2F)nc2cc3c(cc12)OCO3,> 100,> 100,> 100,> 100,14.5,> 100,> 100,> 100,> 100,> 100,> 100,,> 100,> 100,,> 100,,> 100
Cc1[nH]c2[nH]c(=S)nc(NC(N)=S)c2c1Cc1ccccc1,> 100,> 100,36.3,52,> 100,> 100,> 100,> 100,> 100,> 100,> 100,,> 100,> 100,> 100,> 100,,
COc1ccc(-c2n[nH]c3nc4ccccc4n3c2=O)cc1,,> 100,> 100,> 100,> 100,> 100,> 100,> 100,> 100,> 100,> 100,> 100,,> 100,,> 100,> 100,
CC(O)/C=C/C1OC(=O)CC1Nc1ccc(C=O)cc1 (stereo unspecified),58.1,77.4,> 100,> 100,> 100,> 100,> 100,,> 100,66.5,> 100,,> 100,> 100,> 100,> 100,> 100,
COC(OC)[C@@H]1OC[C@H](n2ccc(=O)[nH]c2=O)[C@H]1O,> 100,> 100,> 100,> 100,> 100,> 100,> 100,> 100,> 100,> 100,> 100,,> 100,> 100,> 100,> 100,> 100,
O=C(c1ccccc1)N1CCC(Nc2cccnc2)O1 (stereo unspecified),> 100,> 100,> 100,> 100,> 100,,> 100,,> 100,> 100,> 100,,> 100,> 100,> 100,> 100,,
